In assay [1] the target is T1, PTHR1YFPΔECD (Homo sapiens, UniProt Q03431).
T1 construct: expressed in transfected cells; host or cells: HEK293 (clone GD5Y) with GloSensor cAMP reporter
T1 sequence (Q03431 with tags, fused parts or gaps limits assumed): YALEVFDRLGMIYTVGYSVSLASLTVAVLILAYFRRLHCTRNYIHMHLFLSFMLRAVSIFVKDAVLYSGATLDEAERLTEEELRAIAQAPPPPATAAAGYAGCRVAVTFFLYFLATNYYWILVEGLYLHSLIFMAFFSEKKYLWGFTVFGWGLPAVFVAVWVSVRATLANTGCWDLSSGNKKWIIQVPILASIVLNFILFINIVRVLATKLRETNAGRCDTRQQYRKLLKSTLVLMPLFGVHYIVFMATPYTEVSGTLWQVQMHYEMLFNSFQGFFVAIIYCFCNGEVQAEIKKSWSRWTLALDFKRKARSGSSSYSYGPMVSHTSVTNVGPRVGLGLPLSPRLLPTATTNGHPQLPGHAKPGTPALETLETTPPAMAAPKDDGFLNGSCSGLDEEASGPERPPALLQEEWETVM
In words: cAMP response (GloSensor luminescence), HEK293 stably expressing PTHR1YFPΔECD (GD5Y). It counts as cell-based. The conditions noted are these: peak GloSensor luminescence; mean ± SD, ≥3 independent experiments; read-out: EC50, cAMP induction. Here is the method:
(§1) A HEK293 cell line stably expressing β-Arrestin2-YFP (GBR24) was constructed similarly. PTHR1_6E was produced using the Q5 Site-directed mutagenesis kit (NEB) and used to prepare a stably transfected HEK293-derived cell line. Annotated sequence data for all PTHR1 constructs are found in Supplementary Fig. 19. Aligned sequences of VHHs used in this study are shown in Supplementary Fig. 20.
(§2) These assays were performed as previously described. […] Confluent monolayers of cells were pre-incubated with CO2 independent medium containing D-luciferin (0.5 mM) at 37 °C until a stable baseline level of luminescence was established (20 min). Varying concentrations of ligands were then added, and the time course of luminescence response was recorded using BioTek plate reader.
(§3) Data were processed using Microsoft Excel and GraphPad Prism 6. Data from cAMP dose–response assays were analyzed using a sigmoidal dose–response model with variable slope. Data sets were statistically compared by using Student’s t test (two-tailed) assuming unequal variances for the two sets.

Assay [2] deals with T2, PTHR1GFP (Homo sapiens, UniProt Q03431).
T2 sequence (Q03431 27-593): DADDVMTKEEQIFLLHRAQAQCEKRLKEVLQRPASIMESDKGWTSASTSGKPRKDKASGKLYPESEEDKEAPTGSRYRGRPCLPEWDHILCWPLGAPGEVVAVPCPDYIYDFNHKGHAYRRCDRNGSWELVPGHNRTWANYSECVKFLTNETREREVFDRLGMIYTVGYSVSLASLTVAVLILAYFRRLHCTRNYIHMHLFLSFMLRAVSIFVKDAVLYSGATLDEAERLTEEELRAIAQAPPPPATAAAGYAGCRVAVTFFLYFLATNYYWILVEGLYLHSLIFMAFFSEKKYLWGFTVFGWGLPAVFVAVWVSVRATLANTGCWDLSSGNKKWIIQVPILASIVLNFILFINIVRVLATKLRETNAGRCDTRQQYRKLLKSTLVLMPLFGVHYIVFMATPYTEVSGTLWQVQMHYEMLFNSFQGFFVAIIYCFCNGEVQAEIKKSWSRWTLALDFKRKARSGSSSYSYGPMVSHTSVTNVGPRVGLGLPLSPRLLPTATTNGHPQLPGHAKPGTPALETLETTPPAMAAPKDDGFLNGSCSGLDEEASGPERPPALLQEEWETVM
In words: cAMP response (GloSensor luminescence), HEK293 stably expressing PTHR1GFP (GPG10). The assay is classed as cell-based. As to the method: (§4) These assays were performed as previously described. Briefly, HEK-293-derived cell lines that stably express the Glosensor cAMP reporter (Promega Corp.)[30] and PTHR1, a PTHR1 variant, or PTHR2 were seeded into white sided 96-well plates (50,000 cells/well) and grown to confluency. Confluent monolayers of cells were pre-incubated with CO2 independent medium containing D-luciferin (0.5 mM) at 37 °C until a stable baseline level of luminescence was established (20 min). Varying concentrations of ligands were then added, and the time course of luminescence response was recorded using BioTek plate reader. The maximal luminescence response (observed 12–16 min after ligand addition) was used to construct dose-response data sets (Table 1, Supplementary Fig. 6).
as §3
Supplementary Figure 1. […]
GFP variant known as pHluorin2 engrafted into the receptor(ref. 19, main text). c) HEK293 cells stably expressing PTHR1-GFP were treated with varied doses of the indicated peptides or conjugates and activation was assessed by measuring luminescence from a cAMP-activated luciferase variant. Values listed represent EC50 values (mean ± SD). Each value comes from ≥ 3 independent experiments. Further details, including the number of replicates for each measurement and the normalized maximal responses induced, are reported in Supplementary Table 1. […]
than 5% of the maximal response induced for that cell line.
Peptide or conjugate PTHR1GFP

In another assay the target is T3, hPTHR1 (Homo sapiens, UniProt Q03431).
T3 construct: expressed in transfected cells; host or cells: HEK293 (clone GP2.3) with GloSensor cAMP reporter
T3 sequence (Q03431 27-593): T2 sequence (Q03431 27-593)
In words: cAMP response (GloSensor luminescence), HEK293 stably expressing human PTHR1 (GP2.3). The assay is classed as cell-based. To be noted: peak GloSensor luminescence 12–16 min after ligand; mean ± SD, ≥3 independent experiments; highest conc. 100 nM conjugates, 10,000 nM peptides; read-out: EC50, cAMP induction. As to the method:
as §1, §2, §3

The target in the next assay is T4, PTHR1_6E (Homo sapiens, UniProt Q03431).
T4 sequence (Q03431 106-593 limits assumed): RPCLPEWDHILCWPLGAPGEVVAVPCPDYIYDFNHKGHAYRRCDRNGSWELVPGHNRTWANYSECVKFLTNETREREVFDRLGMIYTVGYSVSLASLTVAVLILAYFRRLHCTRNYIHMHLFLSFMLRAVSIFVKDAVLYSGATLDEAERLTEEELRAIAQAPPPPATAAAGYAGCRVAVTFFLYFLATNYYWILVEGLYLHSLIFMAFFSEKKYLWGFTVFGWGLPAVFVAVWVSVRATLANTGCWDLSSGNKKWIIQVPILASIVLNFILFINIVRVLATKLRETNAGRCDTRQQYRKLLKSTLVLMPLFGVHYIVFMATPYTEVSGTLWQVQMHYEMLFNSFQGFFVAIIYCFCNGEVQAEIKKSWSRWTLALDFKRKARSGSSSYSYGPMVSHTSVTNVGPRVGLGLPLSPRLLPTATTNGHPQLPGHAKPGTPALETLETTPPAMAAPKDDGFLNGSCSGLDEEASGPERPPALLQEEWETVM
In words: cAMP response (GloSensor luminescence), HEK293 stably expressing PTHR1_6E. It counts as cell-based. To be noted: peak GloSensor luminescence; mean ± SD, ≥3 independent experiments; read-out: EC50, cAMP induction. Here is the method: as §1, §2, §3

The target in another assay is T5, hPTHR2 (Homo sapiens, UniProt P49190).
T5 construct: expressed in transfected cells
T5 sequence (P49190 25-550): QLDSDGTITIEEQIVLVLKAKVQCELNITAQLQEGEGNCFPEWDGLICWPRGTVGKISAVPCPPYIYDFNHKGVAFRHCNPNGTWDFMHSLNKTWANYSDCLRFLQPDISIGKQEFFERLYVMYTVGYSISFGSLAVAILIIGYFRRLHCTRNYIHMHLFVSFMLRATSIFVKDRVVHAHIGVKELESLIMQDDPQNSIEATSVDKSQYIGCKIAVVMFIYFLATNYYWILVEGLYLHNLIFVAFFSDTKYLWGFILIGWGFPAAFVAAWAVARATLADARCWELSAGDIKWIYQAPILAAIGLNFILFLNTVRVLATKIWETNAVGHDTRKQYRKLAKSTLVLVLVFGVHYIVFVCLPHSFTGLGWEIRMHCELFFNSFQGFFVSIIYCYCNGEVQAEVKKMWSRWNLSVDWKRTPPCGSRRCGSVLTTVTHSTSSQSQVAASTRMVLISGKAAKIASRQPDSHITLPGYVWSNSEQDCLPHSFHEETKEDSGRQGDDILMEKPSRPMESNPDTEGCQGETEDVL
In words: cAMP response (GloSensor luminescence), HEK293 stably expressing hPTHR2. To be noted: peak GloSensor luminescence; mean ± SD, n = 3-4; read-out: EC50, cAMP induction. The assay is classed as cell-based. Here is the method: as §4, §3

The target in assay [3] is T1, PTHR1YFPΔECD. In words: Flow cytometry binding of VHH-Alexafluor647 to HEK293 expressing PTHR1YFPΔECD. Here is the method:
(§5) Suspensions of cells in PBS were stained for 1 h on ice in the presence of indicated concentrations of VHH probes functionalized with Alexafluor647. Cells were pelleted by centrifugation and washed with PBS prior to analysis by flow cytometry (BD Accuri C6). To select intact cells gating was performed on forward scatter/side scatter profiles for analysis (see Supplementary Fig. 4 for an example of the gating strategy). Data were analyzed using FlowJo version 7.6. The median fluorescent intensity (MFI) of stained cells was used to generate VHH binding dose response curves (Supplementary Fig. 4).
Supplementary Figure 4. Assessment of VHH binding to PTHR1 variants by flow cytometry. Cells dislodged from tissue culture plates using trypsinization were incubated with varied concentrations of VHHs sortagged with AlexaFluor647 on ice for 1 h. Cells were centrifuged, washed, and analyzed by flow cytometry via gating of intact cells (live gate) based on forward scatter/side scatter profiles (panel a). (b) Data points represent median fluorescent intensity values ( individual data points shown, n = 2 independent replicates per condition). Connecting curves are the result of fitting a sigmoidal dose - response model to the data points. Precise estimates for VHH PTHR binding cannot be provided since the […]
(1 picture or pasted object on this page, not shown here)
(In general: A flow cytometer gives signals particle by particle.)

Assay [4] concerns the target T2, PTHR1GFP. In words: Flow cytometry binding of VHH-Alexafluor647 to HEK293 expressing PTHR1GFP. The conditions noted are these: 100 nM VHH-Alexafluor647, on ice. Here is the method:
as §5
Supplementary Figure 1. […] HEK293 cell lines in suspension were incubated on ice with 100 nM VHH sortagged with Alexafluor647, pelleted by centrifugation, washed and analyzed. […]
PTHR1GFP. This weak staining is likely related to the inability of VHHGFP to tightly bind the pH-sensitive GFP variant known as pHluorin2 engrafted into the receptor(ref. 19, main text). c) HEK293 cells stably expressing PTHR1-GFP were treated with varied doses of the indicated peptides or conjugates and activation was assessed by measuring luminescence from a cAMP-activated luciferase variant. […]
Supplementary Figure 4. […] Cells were centrifuged, washed, and analyzed by flow cytometry via gating of intact cells (live gate) based on forward scatter/side scatter profiles (panel a). […]

Like-named read-outs stand apart in the source and are kept apart here. Where a SMILES comes first, the peptide text is derived from it. [ ]: non-standard residue; d: D form. Aib = CC(C)(N)C(=O)O Some results are limits rather than exact numbers.

Consider `CC[C@H](C)[C@H](NC(=O)[C@H](CCC(=O)O)NC(=O)C(C)(C)NC(=O)[C@@H](NC(=O)[C@H](C)N)C(C)C)C(=O)N[C@@H](CCC(N)=O)C(=O)N[C@@H](CC(C)C)C(=O)N[C@@H](CCSC)C(=O)N[C@@H](Cc1c[nH]cn1)C(=O)N[C@@H](CCC(N)=O)C(=O)N[C@@H](CS)C(N)=O` [PTH(1-10)] (H-AV[Aib]EIQLMHQC-NH2), for which the EC50 on PTHR1YFPΔECD [1] was 3840 nM; at PTHR1GFP [2] (peak GloSensor luminescence, mean ± SD, ≥3 independent experiments, read-out: EC50, cAMP induction), 2550 ± 653 nM; at hPTHR1, 3120 nM; at PTHR1_6E it was 5080 nM.

On to `CC[C@H](C)[C@H](NC(=O)[C@H](CCC(=O)O)NC(=O)C(C)(C)NC(=O)[C@@H](NC(=O)[C@H](C)N)C(C)C)C(=O)N[C@@H](CCC(N)=O)C(=O)N[C@@H](CC(C)C)C(=O)N[C@@H](CCSC)C(=O)N[C@@H](Cc1c[nH]cn1)C(=O)N[C@@H](CCC(N)=O)C(=O)N[C@@H](CCCNC(=N)N)C(=O)N[C@@H](C)C(=O)N[C@@H](CCCCN)C(=O)N[C@@H](Cc1c[nH]c2ccccc12)C(=O)N[C@@H](CS)C(N)=O` [PTH(1-14)] (H-AV[Aib]EIQLMHQRAKWC-NH2), for which the 50% effective concentration (EC50) at PTHR1YFPΔECD [1] came out at 1.1 nM; at PTHR1GFP [2], 2.3 ± 1.2 nM; on hPTHR1 it was 4.3 nM; at hPTHR2, 924 ± 328 nM; at PTHR1_6E, 3.4 nM.

Regarding “VHHGFP: nanobody recognizing green or yellow fluorescent proteins (named VHH-enhancer)”, the “staining of cells” value with PTHR1YFPΔECD [3] (100 nM VHH-Alexafluor647, on ice) is on record as “stained”; with PTHR1GFP [4] it was “only weakly stained”. In the assay with PTHR1YFPΔECD [3] (flow cytometry MFI, VHH-Alexafluor647, 1 h on ice), this molecule displayed a half-maximal staining concentration of under 10 nM.

By EC50 is commonly meant the concentration that produces a half-maximal response.
